In paper PMC8436411 (ACS Medicinal Chemistry Letters, 2021):
≈ marks a conversion by molar mass, not a printed value. Where “and” joins values, the source holds several entries; their conditions need not be identical. Equal entries are not always repeated. Where two headings read alike, the source gives them in different places.

Key:
S. aureus (ATCC 29213) [1] = settings: Table S3; ref 10 (SI); cited from earlier work
E. coli (ATCC 25922) [2] = settings: Table S3; ref 10 (SI); cited from earlier work
E. coli D22 [3] = settings: Table S3; mutation in the lpxC gene that increases membrane permeability; ref 10 (SI); cited from earlier work
[4] = test system: E. coli N43 (CGSC no. 5583); settings: Table S3; AcrA knockout strain; ref 10 (SI); cited from earlier work
MRSA (QA-11.7) [5] = settings: Table S3; ref 10 (SI); cited from earlier work
[6] = test system: Salmonella alachua RDK 030c (QA-1482/04); settings: Table S3; ref 10 (SI); cited from earlier work
[7] = test system: Pseudomonas aeruginosa RDK 184 (DSM 939); settings: cited from earlier work; for MIC P. aeruginosa RDK 184 (DSM 939): Table S3, ref 10 (SI)
[8] = test system: Streptococcus agalactiae RDK 047 (QA-990/02); settings: Table S3; ref 10 (SI); cited from earlier work
[9] = test system: Enterococcus faecalis DRK 057 (ATCC 29212); settings: Table S3; ref 10 (SI); cited from earlier work
S. aureus DNA gyrase = biological target: T1, S. aureus DNA gyrase (Staphylococcus aureus, UniProt P20831); experiment: DNA gyrase supercoiling inhibition assay (S. aureus); type: biochemical; settings: mean of two independent measurements ± SD
T1 construct: purchased Inspiralis (Norwich, UK)
Procedure: We synthesized and biologically evaluated ten new compounds. We determined their inhibitory activity, expressed as IC50 values, on both Gram-positive S. aureus and Gram-negative E. coli bacterial enzymes (DNA gyrase and topo IV), respectively. The in vitro antibacterial activity, expressed as minimum inhibitory concentration (MIC), was determined against broad spectrum of bacteria, including Gram-positive (Staphylococcus aureus, methicillin-resistant Staphylococcus aureus, Streptococcus agalactiae, and Enterococcus faecalis) and Gram-negative strains (Escherichia coli, Salmonella alachua, Pseudomonas aeruginosa, and Klebsiella pneumoniae), enriched with various MRSA strains resistant to various antibiotics as well as E. coli strains with increased membrane permeability and lack of efflux pump, as well. Furthermore, the selectivity of compounds for bacterial enzyme compared to the orthologous human topoisomerase IIα was also considered. The in vitro safety profile was determined by cytotoxicity assessment on human umbilical vein endothelial cell lines (HUVEC) and HepG2 liver cancer cell lines.
Determination of DNA gyrase and topoisomerase IV inhibitory activities
To determine the IC50 values of the compounds, a Gyrase Supercoiling High Throughput Plate assay kit and a TopoIV Relaxation High Throughput Plate assay kit, commercially available from Inspiralis (Norwich, UK), were used for S. aureus and E. coli. The assays were performed on black streptavidin-coated 96-well microtiter plates (Thermo Scientific Pierce, Norwich, UK) and the wells were first […]
BSA and 0.05% [v/v] Tween-20). Biotinylated oligonucleotide diluted with the wash buffer was then immobilized in each well and the excess was removed with the wash buffer. 1.5 U of the enzyme S. aureus or E. coli DNA gyrase (topoIV) was incubated together with 0.75 μg of relaxed (supercoiled) pNO1 plasmid as substrate in the presence of 3 μl inhibitor solution in 10% DMSO and 0.008% Tween-20 at 37°C for 30 min in a final reaction volume of 30 μl in the assay buffer (S. aureus DNA gyrase: 40 mM HEPES.KOH (pH 7.6), 10 mM magnesium acetate, 10 mM DTT, 2 mM ATP, 500 mM potassium glutamate and 0.05 mg/ml albumin; E. coli DNA gyrase: 35 mM Tris.HCl (pH 7.5), 24 […]
mg/ml albumin; S. aureus topo IV: 50 mM Tris.HCl (7.5), 5 mM MgCl 2, 5 mM DTT, 1.5 mM ATP, 350 mM potassium glutamate and 0.05 mg/ml albumin; E. coli topo IV: 40 mM HEPES.KOH (pH 7.6), 100 mM potassium glutamate, 10 mM magnesium acetate, 10 mM DTT, 1 mM ATP and 50 μg/ml albumin). The reaction was stopped by adding the TF buffer (50 mM NaOAc (pH 4.7), 50 mM NaCl and 50 mM MgCl2) to allow triplex formation (biotin oligonucleotide plasmid) for another 30 min. Finally, the unbound plasmid was washed off using the TF buffer and the Promega Diamond dye was added to T10 buffer (10 mM Tris-HCl (pH 8.0), 1 mM EDTA) solution. After 15 min the solution […]
Two inhibitor concentrations of 100 and 1 μM were used for pre-screening. The IC 50 values […]
(IC50) was calculated by nonlinear regression-based fitting of the inhibition curves using the log [inhibitor] versus response-variable slope (four parameters) – symmetrical equation, in GraphPad Prism 6.0 software (GraphPad Software, CA, USA). The IC50 value represents the average of two independent measurements.
The minimum inhibitory concentrations (MICs) were determined using the broth micro-dilution method in 96-well plate format according to the Clinical and Laboratory Standards Institute

Human topoisomerase IIα = Human topoisomerase IIα (Homo sapiens, UniProt P11388); experiment: Human topoisomerase IIα residual activity; type: biochemical; settings: residual activity at 10 μM compound; mean ± SD, two independent experiments; read-out: Human topoisomerase IIα (%RA)
E. coli (ATCC 25922) [10] = experiment: microbe, parasite or virus in culture; settings: Escherichia coli, ATCC25922, read-out: MIC E. coli (ATCC 25922)
Procedure: (§1) The in vitro antibacterial activity, expressed as minimum inhibitory concentration (MIC), was determined against broad spectrum of bacteria, including Gram-positive (Staphylococcus aureus, methicillin-resistant Staphylococcus aureus, Streptococcus agalactiae, and Enterococcus faecalis) and Gram-negative strains (Escherichia coli, Salmonella alachua, Pseudomonas aeruginosa, and Klebsiella pneumoniae), enriched with various MRSA strains resistant to various antibiotics as well as E. coli strains with increased membrane permeability and lack of efflux pump, as well. […]
(§2) The minimum inhibitory concentrations (MICs) were determined using the broth micro-dilution method in 96-well plate format according to the Clinical and Laboratory Standards Institute […]
(§3) guidelines8 and European Committee on Antimicrobial Susceptibility Testing recommendations9. The bacterial suspension of the specific bacterial strain equivalent to the 0.5 McFarland turbidity standard was diluted with cation-adapted Mueller Hinton broth with TES (Thermo Fisher Scientific) to obtain a […]
(§4) The compounds dissolved in DMSO and inoculum were mixed together and incubated for 20 h at 35 °C.

E. coli D22 [11] = experiment: microbe, parasite or virus in culture; settings: Escherichia coli
Procedure: as §1, §2, §3, §4

[12] = test system: E. coli N43 (CGSC no. 5583); experiment: microbe, parasite or virus in culture; settings: Escherichia coli
Procedure: as §1, §2, §3, §4

[13] = test system: Enterococcus faecalis DRK 057 (ATCC 29212); experiment: microbe, parasite or virus in culture
Procedure: as §1, §2, §3, §4

Klebsiella pneumoniae = experiment: microbe, parasite or virus in culture
Procedure: as §1, §2, §3, §4

MRSA (QA-11.7) [14] = experiment: microbe, parasite or virus in culture; settings: Staphylococcus aureus, read-out: MIC MRSA (QA-11.7)
Procedure: as §1, §2, §3, §4

MRSA (QA-12.1) = experiment: microbe, parasite or virus in culture; settings: Staphylococcus aureus, read-out: MIC MRSA (QA-12.1)
Procedure: as §1, §2, §3, §4

[15] = test system: Pseudomonas aeruginosa RDK 184 (DSM 939); experiment: microbe, parasite or virus in culture
Procedure: as §1, §2, §3, §4

S. aureus (ATCC 29213) [16] = experiment: microbe, parasite or virus in culture; settings: Staphylococcus aureus, ATCC29213, read-out: MIC S. aureus (ATCC 29213)
Procedure: as §1, §2, §3, §4

[17] = test system: Salmonella alachua RDK 030c (QA-1482/04); experiment: microbe, parasite or virus in culture
Procedure: as §1, §2, §3, §4

[18] = test system: Streptococcus agalactiae RDK 047 (QA-990/02); experiment: microbe, parasite or virus in culture
Procedure: as §1, §2, §3, §4

[19] = read-out: MIC E. coli N43 (CGSC no. 5583)
[20] = read-out: MIC E. coli N43 (CGSC# 5583)
[21] = ATCC29212, read-out: MIC E. faecalis DRK 057 (ATCC 29212)
[22] = ATCC29212, read-out: MIC Enterococcus faecalis DRK 057 (ATCC 29212)
[23] = read-out: MIC Klebsiella pneumoniae
[24] = DSM939, read-out: MIC P. aeruginosa RDK 184 (DSM 939)
[25] = DSM939, read-out: MIC Pseudomonas aeruginosa RDK 184 (DSM 939)
[26] = read-out: MIC S. alachua RDK 030c (QA-1482/04)
[27] = read-out: MIC Salmonella alachua RDK 030c (QA-1482/04)
[28] = read-out: MIC S. agalactiae RDK 047 (QA-990/02)
[29] = read-out: MIC Streptococcus agalactiae RDK 047 (QA-990/02)

T1 sequence (P20831 whole entry, looked up): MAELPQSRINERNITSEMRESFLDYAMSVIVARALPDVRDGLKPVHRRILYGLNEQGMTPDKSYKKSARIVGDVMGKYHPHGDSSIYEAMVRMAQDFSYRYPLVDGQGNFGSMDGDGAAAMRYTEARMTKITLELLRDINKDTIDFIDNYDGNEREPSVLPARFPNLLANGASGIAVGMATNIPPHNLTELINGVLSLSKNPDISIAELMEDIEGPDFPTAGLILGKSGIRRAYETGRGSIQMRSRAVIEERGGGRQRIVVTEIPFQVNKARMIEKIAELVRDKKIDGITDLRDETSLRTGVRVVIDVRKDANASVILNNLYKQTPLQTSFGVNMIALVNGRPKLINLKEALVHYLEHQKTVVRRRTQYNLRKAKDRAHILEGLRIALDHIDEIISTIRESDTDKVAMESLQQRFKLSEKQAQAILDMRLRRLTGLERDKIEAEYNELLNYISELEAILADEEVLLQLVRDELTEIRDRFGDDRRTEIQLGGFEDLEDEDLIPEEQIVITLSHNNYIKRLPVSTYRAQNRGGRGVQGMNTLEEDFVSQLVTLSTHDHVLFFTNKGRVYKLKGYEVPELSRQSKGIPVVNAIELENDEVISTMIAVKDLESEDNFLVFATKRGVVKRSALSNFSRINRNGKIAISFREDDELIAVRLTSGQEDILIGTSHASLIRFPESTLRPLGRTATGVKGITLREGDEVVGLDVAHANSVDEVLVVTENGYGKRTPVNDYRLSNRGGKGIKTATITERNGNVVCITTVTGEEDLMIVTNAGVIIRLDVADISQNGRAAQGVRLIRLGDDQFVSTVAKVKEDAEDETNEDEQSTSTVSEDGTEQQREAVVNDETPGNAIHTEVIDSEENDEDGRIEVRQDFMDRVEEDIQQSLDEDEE
Human topoisomerase IIα, sequence (P11388 whole entry): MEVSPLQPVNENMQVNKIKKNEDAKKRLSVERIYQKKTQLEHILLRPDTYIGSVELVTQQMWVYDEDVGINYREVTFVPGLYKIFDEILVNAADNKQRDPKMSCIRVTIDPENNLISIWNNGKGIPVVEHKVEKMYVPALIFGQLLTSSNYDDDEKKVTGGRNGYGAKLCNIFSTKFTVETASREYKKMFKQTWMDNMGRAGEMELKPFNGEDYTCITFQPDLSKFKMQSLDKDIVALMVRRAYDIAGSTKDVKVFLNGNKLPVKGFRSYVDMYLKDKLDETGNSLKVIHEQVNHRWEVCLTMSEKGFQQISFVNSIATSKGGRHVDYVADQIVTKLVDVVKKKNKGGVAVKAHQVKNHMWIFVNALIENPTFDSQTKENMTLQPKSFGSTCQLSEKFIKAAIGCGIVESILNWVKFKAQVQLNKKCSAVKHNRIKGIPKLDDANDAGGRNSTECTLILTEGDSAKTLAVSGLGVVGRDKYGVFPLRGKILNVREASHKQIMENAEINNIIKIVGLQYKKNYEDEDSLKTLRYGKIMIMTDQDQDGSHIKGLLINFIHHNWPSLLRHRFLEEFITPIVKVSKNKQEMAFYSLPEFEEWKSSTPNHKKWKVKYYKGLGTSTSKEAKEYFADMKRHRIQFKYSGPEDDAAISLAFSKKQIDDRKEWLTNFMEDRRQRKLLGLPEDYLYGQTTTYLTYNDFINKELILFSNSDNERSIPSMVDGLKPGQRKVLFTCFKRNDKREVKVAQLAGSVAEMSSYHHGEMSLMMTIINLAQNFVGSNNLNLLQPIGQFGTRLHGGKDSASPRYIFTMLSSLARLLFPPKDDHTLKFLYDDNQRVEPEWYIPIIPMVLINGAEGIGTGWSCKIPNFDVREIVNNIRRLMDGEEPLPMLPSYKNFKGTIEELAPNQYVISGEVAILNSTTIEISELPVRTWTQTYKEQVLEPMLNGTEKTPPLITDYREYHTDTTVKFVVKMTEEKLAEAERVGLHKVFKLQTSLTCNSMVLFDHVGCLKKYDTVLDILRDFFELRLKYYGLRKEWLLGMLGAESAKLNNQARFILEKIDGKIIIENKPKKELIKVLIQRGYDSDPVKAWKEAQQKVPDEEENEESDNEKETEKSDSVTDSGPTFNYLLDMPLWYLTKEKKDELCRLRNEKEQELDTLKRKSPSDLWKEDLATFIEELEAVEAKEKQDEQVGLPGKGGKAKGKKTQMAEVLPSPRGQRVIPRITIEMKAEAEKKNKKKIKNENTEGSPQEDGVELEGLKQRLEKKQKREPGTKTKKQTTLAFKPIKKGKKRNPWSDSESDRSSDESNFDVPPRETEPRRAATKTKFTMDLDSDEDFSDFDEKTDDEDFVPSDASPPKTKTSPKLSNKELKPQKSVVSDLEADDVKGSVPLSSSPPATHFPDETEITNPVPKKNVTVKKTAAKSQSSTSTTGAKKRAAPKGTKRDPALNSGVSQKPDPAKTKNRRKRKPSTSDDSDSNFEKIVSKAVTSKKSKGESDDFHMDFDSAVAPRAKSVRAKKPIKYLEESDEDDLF

Row | Compound | MIC S. aureus (ATCC 29213) (S. aureus (ATCC 29213) [1]) [µM] | MIC E. coli (ATCC 25922) (E. coli (ATCC 25922) [2]) [µM] | MIC E. coli D2 (E. coli D22 [3]) [µM] | MIC E. coli N43 (CGSC# 5583) [4] [µM] | MIC MRSA (QA-11.7) (MRSA (QA-11.7) [5]) [µM] | MIC S. alachua RDK 030c (QA-1482/04) [6] [µM] | MIC P. aeruginosa RDK 184 (DSM 939) [7] [µM] | MIC S. agalactiae RDK 047 (QA-990/02) [8] [µM] | IC50 (S. aureus DNA gyrase) [nM] | remaining activity at 10 µM (Human topoisomerase IIα) [%] | MIC (E. coli (ATCC 25922) [10]) | MIC (E. coli D22 [11]; D22, read-out: MIC E. coli D2) [µM] | MIC (E. coli D22 [11]; D22, read-out: MIC E. coli D22) [µg/mL] | MIC [12, 19] [µg/mL] | MIC [12, 20] [µM] | MIC [13, 21] [µM] | MIC [13, 22] [µg/mL] | MIC (Klebsiella pneumoniae; read-out: MIC K. pneumoniae) [µM] | MIC (Klebsiella pneumoniae; [23]) [µg/mL] | MIC (MRSA (QA-11.7) [14]) | further results
1 | COc1ccc2nccc(CCN3CCC(NCc4ccc(Cl)cc4)CC3)c2n1 [Compound 1] | 0.304 (≈ 0.125 µg/mL) | 9.73 (≈ 4 µg/mL) | 4.87 (≈ 2 µg/mL) | 1.22 (≈ 0.501 µg/mL) | 1.22 (≈ 0.501 µg/mL) | 77.9 (≈ 32 µg/mL) | > 311 | 2.43 (≈ 0.999 µg/mL) |  |  |  |  |  |  |  |  |  |  |  |  | MIC Pseudomonas aeruginosa RDK 184 (DSM 939) [7]: >128 µg/mL; MIC E. faecalis DRK 057 (ATCC 29212) [9]: 2.43 µM (≈ 0.999 µg/mL)
2 | COc1ccc2nccc(CCN3CCC(NCc4ccc(Cl)nc4)CC3)c2n1 [Compound 12] |  |  |  |  |  |  |  |  | 283 ± 9 | 99.7 ± 1.48 | 77.7 µM and 32 µg/mL | 9.71 | 4 | 8 | 19.4 | 77.7 | 32 | > 311 | > 128 | 2.43 µM and 1 µg/mL | MIC (MRSA (QA-12.1)): 4.86 µM and 2 µg/mL; MIC [15, 24]: > 311 µM; MIC [15, 25]: > 128 µg/mL; MIC (S. aureus (ATCC 29213) [16]): 2.43 µM and 1 µg/mL; MIC [17, 26]: > 311 µM; MIC [17, 27]: > 128 µg/mL; MIC [18, 28]: 155 µM; MIC [18, 29]: 64 µg/mL
3 | COc1ccc2nccc(CCN3CCC(NCc4ccc(Br)cc4)CC3)c2n1 [Compound 2] | 0.068 (≈ 0.031 µg/mL) | 4.39 (≈ 2 µg/mL) | 0.274 (≈ 0.125 µg/mL) | 0.274 (≈ 0.125 µg/mL) | 0.136 (≈ 0.0619 µg/mL) | 35.1 (≈ 16 µg/mL) | 281 (≈ 128 µg/mL) | 1.098 (≈ 0.5 µg/mL) |  |  |  |  |  |  |  |  |  |  |  |  | MIC E. faecalis DRK 057 (ATCC 29212) [9]: 2.20 µM (≈ 1 µg/mL)
4 | COc1ccc2nccc(CCN3CCC(NCc4ccc(I)c(F)c4F)CC3)c2n1 [Compound 11] |  |  |  |  |  |  |  |  | 9 ± 1 | 94.9 ± 5.67 | 3.71 µM and 2 µg/mL | 0.23 | 0.125 | 0.031 | 0.058 | 0.929 | 0.5 | 59.4 | 32 | 0.058 µM and 0.031 µg/mL | MIC (MRSA (QA-12.1)): 0.115 µM and 0.062 µg/mL; MIC [15, 24]: 119 µM; MIC [15, 25]: 64 µg/mL; MIC (S. aureus (ATCC 29213) [16]): 0.015 µM and 0.008 µg/mL; MIC [17, 26]: 14.9 µM; MIC [17, 27]: 8 µg/mL; MIC [18, 28]: 0.929 µM; MIC [18, 29]: 0.5 µg/mL
5 | COc1ccc2nccc(CCN3CCC(NCc4ccc(Br)c(F)c4)CC3)c2n1 [Compound 5] |  |  |  |  |  |  |  |  | 7 | 98.46 ± 0.45 | 2.11 µM and 1 µg/mL | 0.131 | 0.062 | 0.031 | 0.065 | 1.06 | 0.5 | 33.8 | 16 | 0.034 µM and 0.016 µg/mL | MIC (MRSA (QA-12.1)): 0.065 µM and 0.031 µg/mL; MIC [15, 24]: 67.6 µM; MIC [15, 25]: 32 µg/mL; MIC (S. aureus (ATCC 29213) [16]): 0.017 µM and 0.008 µg/mL; MIC [17, 26]: 8.45 µM; MIC [17, 27]: 4 µg/mL; MIC [18, 28]: 4.22 µM; MIC [18, 29]: 2 µg/mL
6 | COc1ccc2nccc(CCN3CCC(NCc4ccc(I)cc4)CC3)c2n1 [Compound 3] | 0.016 (≈ 0.00804 µg/mL) | 3.98 (≈ 2 µg/mL) | 0.249 (≈ 0.125 µg/mL) | 0.155 (≈ 0.0779 µg/mL) | 0.016 (≈ 0.00804 µg/mL) | 15.9 (≈ 7.99 µg/mL) | 63.7 (≈ 32 µg/mL) | 0.249 (≈ 0.125 µg/mL) |  |  |  |  |  |  |  |  |  |  |  |  | 
